Measurements taken from patent publication US11142527B2, “Dihydropyrimidine compounds and uses thereof in medicine” (SUNSHINE LAKE PHARMA CO., LTD., priority 2017, dated 2021).

Tests used:
HBV = experiment: Test of anti HBV activity in vitro (viral DNA by qPCR); format: cell-based; conditions: Hepatitis B virus; HepG2.2.15 cells, viral DNA in cell culture supernatant by qPCR; read-out: EC50 values of the compound of the invention on viral replication
Summary of the method: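 HepG2.2.15 cells (integrated HBV genome) were grown to confluence, then treated with compound in 4-fold dilutions from 4 μM final (0.5% DMSO). Secreted viral DNA in supernatant was quantified by SYBR qPCR against an HBV plasmid standard curve; EC50 from four-parameter nonlinear regression of concentration versus copy number.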

[1] = Cytotoxicity test with CellTiter Glo; format: cell-based; conditions: human, HepG2.2.15 cells, highest concentration 150 μM, read-out: CC50 values of the compounds of the invention
Summary of the method: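 HepG2.2.15 cells (3000/well) exposed to serially diluted compound, highest final concentration 150 μM, for 4 days at 37 °C. Viability read by CellTiter Glo, cytotoxicity % taken relative to DMSO controls, and CC50 obtained by four-parameter nonlinear regression.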

Structure (SMILES)	EC50 (HBV)	CC50 at 4 days [1]
COC(=O)C1=C(CN2CCN3C(=O)N(c4ccc(Oc5cc(F)cc(C(=O)O)c5)cn4)C[C@@H]3C2)NC(c2nccs2)=N[C@H]1c1ccc(F)cc1Cl [Example 79, 3-((6-((S)-7-(((R)-6-(2-chloro-4-fluorophenyl)-5-(methoxycarbonyl)-2-(thiazol-2-yl)-3,6-dihydropyrimidin-4-yl)methyl)-3-oxohexahydroimidazo[1,5-a]pyrazin-2(3H)-yl)pyridin-3-yl)oxy)-5-fluorobenzoic acid]	29 nM	> 150000 nM
COC(=O)C1=C(CN2CCN3C(=O)N(c4ccc(=O)n(-c5ccc(C(=O)O)cc5F)c4)C[C@@H]3C2)NC(c2nccs2)=N[C@H]1c1ccc(F)cc1Cl [Example 80, 4-(5-((S)-7-(((R)-6-(2-chloro-4-fluorophenyl)-5-(methoxycarbonyl)-2-(thiazol-2-yl)-3,6-dihydropyrimidin-4-yl)methyl)-3-oxohexahydroimidazo[1,5-a]pyrazin-2(3H)-yl)-2-oxopyridin-1(2H)-yl)-3-fluorobenzoic acid]	15.8 nM	> 150000 nM
COC(=O)C1=C(CN2CCN3C(=O)N(c4cc(F)cc(Oc5ccc(C(=O)O)cc5F)c4)C[C@@H]3C2)NC(c2nccs2)=N[C@H]1c1cccc(F)c1Cl [Example 90, 4-(3-((S)-7-(((R)-6-(2-chloro-3-fluorophenyl)-5-(methoxycarbonyl)-2-(thiazol-2-yl)-3,6-dihydropyrimidin-4-yl)methyl)-3-oxohexahydroimidazo[1,5-a]pyrazin-2(3H)-yl)-5-fluorophenoxy)-3-fluorobenzoic acid]	12.5 nM	> 150000 nM
COC(=O)C1=C(CN2CCN3C(=O)N(c4ccc(Sc5ccc(C(=O)O)cc5)cc4)C[C@@H]3C2)NC(c2nccs2)=N[C@H]1c1ccc(F)cc1Cl [Example 91, 4-((4-((S)-7-(((R)-6-(2-chloro-4-fluorophenyl)-5-(methoxycarbonyl)-2-(thiazol-2-yl)-3,6-dihydropyrimidin-4-yl)methyl)-3-oxohexahydroimidazo[1,5-a]pyrazin-2(3H)-yl)phenyl)thio)benzoic acid]	37.7 nM	> 150000 nM
COC(=O)C1=C(CN2CCN3C(=O)N(c4cc(F)cc(Oc5ccc(C(=O)O)cc5F)c4)C[C@@H]3C2)NC(c2nccs2)=N[C@H]1c1ccccc1Cl [Example 93, 4-(3-((S)-7-(((R)-6-(2-chlorophenyl)-5-(methoxycarbonyl)-2-(thiazol-2-yl)-3,6-dihydropyrimidin-4-yl)methyl)-3-oxohexahydroimidazo[1,5-a]pyrazin-2(3H)-yl)-5-fluorophenoxy)-3-fluorobenzoic acid]	21.5 nM	> 150000 nM
COC(=O)C1=C(CN2CCN3C(=O)N(c4ccc(Oc5ccc(C#N)cc5)cc4)C[C@@H]3C2)NC(c2nccs2)=N[C@H]1c1ccc(F)cc1Cl [Example 97, (R)-methyl 4-(2-chloro-4-fluorophenyl)-6-(((S)-2-(4-(4-cyanophenoxy)phenyl)-3-oxohexahydroimidazo[1,5-a]pyrazin-7(1H)-yl)methyl)-2-(thiazol-2-yl)-1,4-dihydropyrimidine-5-carboxylate]	36.8 nM	> 150000 nM
COC(=O)C1=C(CN2CCN3C(=O)N(c4ccc(Sc5ccc(C#N)cc5)cc4)C[C@@H]3C2)NC(c2nccs2)=N[C@H]1c1ccc(F)cc1Cl [Example 98, (R)-methyl 4-(2-chloro-4-fluorophenyl)-6-(((S)-2-(4-((4-cyanophenyl)thio)phenyl)-3-oxohexahydroimidazo[1,5-a]pyrazin-7(1H)-yl)methyl)-2-me (thiazol-2-yl)-1,4-dihydropyrimidine-5-carboxylate]	11.9 nM	> 150000 nM
COC(=O)C1=C(CN2CCN3C(=O)N(c4ccc(Oc5ccc(CO)cc5)cc4)C[C@@H]3C2)NC(c2nccs2)=N[C@H]1c1ccc(F)cc1Cl [Example 99, (R)-methyl 4-(2-chloro-4-fluorophenyl)-6-(((S)-2-(4-(4-(hydroxymethyl)phenoxy)phenyl)-3-oxohexahydroimidazo[1,5-a]pyrazin-7(1H)-yl)methyl)-2-(thiazol-2-yl)-1,4-dihydropyrimidine-5-carboxylate]	12.6 nM	> 150000 nM
COC(=O)C1=C(CN2CCN3C(=O)N(c4ccc(Oc5ccc(C(C)(C)O)cc5)cc4)C[C@@H]3C2)NC(c2nccs2)=N[C@H]1c1ccc(F)cc1Cl [Example 100, (R)-methyl 4-(2-chloro-4-fluorophenyl)-6-(((S)-2-(4-(4-(2-hydroxyprop-2-yl)phenoxy)phenyl)-3-oxohexahydroimidazo[1,5-a]pyrazin-7(1H)-yl)methyl)-2-(thiazol-2-yl)-1,4-dihydropyrimidine-5-carboxylate]	16.8 nM	> 150000 nM
COC(=O)C1=C(CN2CCN3C(=O)N(Cc4ccc(Oc5ccc(C#N)cc5)cc4)C[C@@H]3C2)NC(c2nccs2)=N[C@H]1c1ccc(F)cc1Cl [Example 102, (R)-methyl 4-(2-chloro-4-fluorophenyl)-6-(((S)-2-(4-(4-cyanophenoxy)benzyl)-3-oxohexahydroimidazo[1,5-a]pyrazin-7(1H)-yl)methyl)-2-(thiazol-2-yl)-1,4-dihydropyrimidine-5-carboxylate]	4.2 nM	> 150000 nM
COC(=O)C1=C(CN2CCN3C(=O)N(c4ccc(Oc5ccc(OC)cc5)cc4)C[C@@H]3C2)NC(c2nccs2)=N[C@H]1c1ccc(F)cc1Cl [Example 103, (R)-methyl 4-(2-chloro-4-fluorophenyl)-6-(((S)-2-(4-(4-methoxyphenoxy)phenyl)-3-oxohexahydroimidazo[1,5-a]pyrazin-7(1H)-yl)methyl)-2-me (thiazol-2-yl)-1,4-dihydropyrimidine-5-carboxylate]	19.4 nM	> 150000 nM
COC(=O)C1=C(CN2CCN3C(=O)N(c4ccc(Sc5ccc(OC(C)C)cc5)cc4)C[C@@H]3C2)NC(c2nccs2)=N[C@H]1c1ccc(F)cc1Cl [Example 105, (R)-methyl 4-(2-chloro-4-fluorophenyl)-6-(((S)-2-(4-((4-isopropoxyphenyl)thio)phenyl)-3-oxohexahydroimidazo[1,5-a]pyrazin-7(1H)-yl)methyl)-2-(thiazol-2-yl)-1,4-dihydropyrimidine-5-carboxylate]	29 nM	> 150000 nM
COC(=O)C1=C(CN2CCN3C(=O)N(c4ccc(Oc5ccc(S(C)(=O)=O)cc5)cc4)C[C@@H]3C2)NC(c2nccs2)=N[C@H]1c1ccc(F)cc1Cl [Example 106, (R)-methyl 4-(2-chloro-4-fluorophenyl)-6-(((S)-2-(4-(4-(methylsulfonyl)phenoxy)phenyl)-3-oxohexahydroimidazo[1,5-a]pyrazin-7(1H)-yl)methyl)-2-(thiazol-2-yl)-1,4-dihydropyrimidine-5-carboxylate]	6.2 nM	> 150000 nM
COC(=O)C1=C(CN2CCN3C(=O)N(c4ccc(-c5nc(C6CC6)c[nH]5)cc4)C[C@@H]3C2)NC(c2nccs2)=N[C@H]1c1ccc(F)cc1Cl [Example 111, (R)-methyl 4-(2-chloro-4-fluorophenyl)-6-(((S)-2-(4-(4-cyclopropyl-1H-imidazol-2-yl)phenyl)-3-oxohexahydroimidazo[1,5-a]pyrazin-7(1H)-yl)methyl)-2-(thiazol-2-yl)-1,4-dihydropyrimidine-5-carboxylate]	7.5 nM	> 150000 nM
